Results as given in ChEMBL document CHEMBL1151315, “Baicalein, an alpha-glucosidase inhibitor from Scutellaria baicalensis” (J Nat Prod, 1998).
The source made the active and inactive calls. The rule behind the calls is not given here.

How the values were obtained:
[1] = target: Sucrase-isomaltase, intestinal (Rattus norvegicus, UniProt P23739); assay: Inhibition of rat intestinal sucrase
[2] = target: T1, Sucrase-isomaltase, intestinal (Homo sapiens, UniProt P14410); assay: Inhibition of human intestinal sucrase
Target sequence in this assay (P14410 whole entry, looked up): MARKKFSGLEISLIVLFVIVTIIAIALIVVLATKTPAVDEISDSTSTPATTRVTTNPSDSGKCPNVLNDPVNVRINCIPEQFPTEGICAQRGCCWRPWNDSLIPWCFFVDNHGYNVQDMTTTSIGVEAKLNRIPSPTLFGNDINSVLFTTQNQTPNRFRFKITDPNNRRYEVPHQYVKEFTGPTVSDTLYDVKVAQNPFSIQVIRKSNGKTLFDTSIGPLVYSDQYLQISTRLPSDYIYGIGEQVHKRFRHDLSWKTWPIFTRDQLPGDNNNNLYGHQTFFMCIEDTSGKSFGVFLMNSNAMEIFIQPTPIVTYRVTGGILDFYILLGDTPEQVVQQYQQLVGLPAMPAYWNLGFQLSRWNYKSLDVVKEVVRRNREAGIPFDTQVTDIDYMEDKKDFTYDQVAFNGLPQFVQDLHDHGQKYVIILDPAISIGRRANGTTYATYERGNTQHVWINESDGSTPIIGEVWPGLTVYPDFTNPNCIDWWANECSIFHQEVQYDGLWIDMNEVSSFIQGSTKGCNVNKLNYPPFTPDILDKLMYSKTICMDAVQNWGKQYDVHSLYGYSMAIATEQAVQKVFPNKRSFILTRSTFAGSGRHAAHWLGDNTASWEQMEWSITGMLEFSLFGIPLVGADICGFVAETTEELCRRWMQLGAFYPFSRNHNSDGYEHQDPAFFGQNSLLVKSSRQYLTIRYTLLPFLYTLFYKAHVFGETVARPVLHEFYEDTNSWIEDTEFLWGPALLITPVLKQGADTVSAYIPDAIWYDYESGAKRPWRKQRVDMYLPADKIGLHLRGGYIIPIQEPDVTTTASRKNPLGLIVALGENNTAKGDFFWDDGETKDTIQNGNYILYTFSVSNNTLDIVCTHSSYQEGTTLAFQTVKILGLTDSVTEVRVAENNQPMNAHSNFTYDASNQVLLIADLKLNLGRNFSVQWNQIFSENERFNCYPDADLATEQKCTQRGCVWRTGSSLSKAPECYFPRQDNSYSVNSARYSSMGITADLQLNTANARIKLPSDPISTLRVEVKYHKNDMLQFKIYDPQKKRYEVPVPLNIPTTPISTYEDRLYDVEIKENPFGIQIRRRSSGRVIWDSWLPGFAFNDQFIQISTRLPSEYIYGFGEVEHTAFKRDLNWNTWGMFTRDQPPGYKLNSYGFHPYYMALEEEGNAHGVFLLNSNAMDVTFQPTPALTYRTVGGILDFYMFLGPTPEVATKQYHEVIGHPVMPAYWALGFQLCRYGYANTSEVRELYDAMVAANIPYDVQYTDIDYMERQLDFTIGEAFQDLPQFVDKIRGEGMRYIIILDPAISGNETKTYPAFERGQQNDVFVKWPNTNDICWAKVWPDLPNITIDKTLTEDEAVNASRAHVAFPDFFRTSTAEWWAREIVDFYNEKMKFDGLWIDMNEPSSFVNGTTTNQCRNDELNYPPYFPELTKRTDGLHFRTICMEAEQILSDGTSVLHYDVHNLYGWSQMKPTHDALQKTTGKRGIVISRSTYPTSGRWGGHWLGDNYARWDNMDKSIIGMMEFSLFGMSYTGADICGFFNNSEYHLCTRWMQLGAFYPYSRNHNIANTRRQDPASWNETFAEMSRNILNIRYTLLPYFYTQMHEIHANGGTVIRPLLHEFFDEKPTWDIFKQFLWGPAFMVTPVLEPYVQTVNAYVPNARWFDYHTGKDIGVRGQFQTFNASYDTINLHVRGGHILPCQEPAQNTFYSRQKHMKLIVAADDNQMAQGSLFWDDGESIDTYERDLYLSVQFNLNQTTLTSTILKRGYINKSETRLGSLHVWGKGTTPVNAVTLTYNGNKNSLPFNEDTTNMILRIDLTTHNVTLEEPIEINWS

[3] = target: T1, Sucrase-isomaltase, intestinal; assay: Inhibition of human intestinal sucrase in human Caco-2 cell membrane; format: cell-based
Target sequence in this assay (P14410 2-1007 limits assumed): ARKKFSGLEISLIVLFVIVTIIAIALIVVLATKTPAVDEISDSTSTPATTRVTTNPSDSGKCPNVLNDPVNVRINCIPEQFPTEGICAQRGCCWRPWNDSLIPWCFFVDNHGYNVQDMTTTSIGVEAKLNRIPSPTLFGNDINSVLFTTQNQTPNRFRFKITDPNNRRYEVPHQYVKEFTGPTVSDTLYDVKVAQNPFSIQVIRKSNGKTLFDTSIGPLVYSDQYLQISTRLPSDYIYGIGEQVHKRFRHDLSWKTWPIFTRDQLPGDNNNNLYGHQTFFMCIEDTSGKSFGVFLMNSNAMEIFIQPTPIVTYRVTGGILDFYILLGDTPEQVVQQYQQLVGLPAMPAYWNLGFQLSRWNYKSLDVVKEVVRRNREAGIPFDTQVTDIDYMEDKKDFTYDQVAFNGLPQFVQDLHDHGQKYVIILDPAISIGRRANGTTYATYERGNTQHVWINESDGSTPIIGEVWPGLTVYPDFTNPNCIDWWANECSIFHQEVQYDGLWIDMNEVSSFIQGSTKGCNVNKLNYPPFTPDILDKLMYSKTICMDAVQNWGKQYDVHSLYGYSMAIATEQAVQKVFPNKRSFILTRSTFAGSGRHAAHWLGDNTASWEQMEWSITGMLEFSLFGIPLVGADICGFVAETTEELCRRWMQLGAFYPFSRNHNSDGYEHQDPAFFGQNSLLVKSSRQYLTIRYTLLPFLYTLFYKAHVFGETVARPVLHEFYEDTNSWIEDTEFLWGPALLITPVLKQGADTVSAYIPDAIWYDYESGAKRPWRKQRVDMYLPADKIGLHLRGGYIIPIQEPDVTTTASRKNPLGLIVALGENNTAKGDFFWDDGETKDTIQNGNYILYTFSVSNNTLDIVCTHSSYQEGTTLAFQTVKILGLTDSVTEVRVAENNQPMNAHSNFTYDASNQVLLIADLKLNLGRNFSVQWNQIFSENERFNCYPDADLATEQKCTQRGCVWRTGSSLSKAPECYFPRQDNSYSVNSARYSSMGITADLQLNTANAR
Target sequence in this assay (P14410 1008-1827 limits assumed): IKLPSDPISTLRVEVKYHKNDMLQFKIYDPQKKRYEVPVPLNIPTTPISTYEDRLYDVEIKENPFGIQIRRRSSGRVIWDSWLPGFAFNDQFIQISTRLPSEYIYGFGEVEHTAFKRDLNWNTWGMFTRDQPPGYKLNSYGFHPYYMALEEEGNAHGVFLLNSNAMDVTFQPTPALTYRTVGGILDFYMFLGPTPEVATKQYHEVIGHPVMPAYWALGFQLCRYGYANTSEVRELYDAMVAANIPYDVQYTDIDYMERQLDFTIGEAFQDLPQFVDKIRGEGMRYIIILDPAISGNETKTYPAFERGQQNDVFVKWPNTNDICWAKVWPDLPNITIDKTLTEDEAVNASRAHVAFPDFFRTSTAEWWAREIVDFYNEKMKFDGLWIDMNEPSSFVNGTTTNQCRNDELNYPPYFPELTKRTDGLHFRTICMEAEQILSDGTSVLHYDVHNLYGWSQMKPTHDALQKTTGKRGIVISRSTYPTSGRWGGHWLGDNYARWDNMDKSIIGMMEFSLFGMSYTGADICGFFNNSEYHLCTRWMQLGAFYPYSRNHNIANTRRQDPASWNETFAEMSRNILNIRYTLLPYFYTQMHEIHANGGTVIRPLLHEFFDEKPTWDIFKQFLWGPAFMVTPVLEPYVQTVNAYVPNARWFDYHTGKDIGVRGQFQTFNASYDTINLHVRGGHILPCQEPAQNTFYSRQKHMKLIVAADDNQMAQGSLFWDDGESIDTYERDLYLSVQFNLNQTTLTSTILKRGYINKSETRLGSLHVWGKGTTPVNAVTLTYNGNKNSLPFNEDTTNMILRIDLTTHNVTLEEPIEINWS

[4] = target: Sucrase-isomaltase, intestinal (Rattus norvegicus) (UniProt P23739); conditions: Caco-2, 21 uM
Description: Inhibition of rat intestinal sucrase expressed in human Caco-2 cells at 21 uM

[5] = target: T1, Sucrase-isomaltase, intestinal; assay: Inhibition of human intestinal sucrase in human Caco-2 cell membrane at 25 uM
Target sequence in this assay (P14410 2-1007 limits assumed): as the sequence (P14410 2-1007 limits assumed) above
Target sequence in this assay (P14410 1008-1827 limits assumed): as the sequence (P14410 1008-1827 limits assumed) above

| IC50 [1] [µM] | Activity [2] | IC50 [3] [µM] | inhibition [4] [%] | inhibition [5] [%] | Structure (SMILES) |
| --- | --- | --- | --- | --- | --- |
| 260 | Active | 35 | – | – | O=c1cc(-c2ccccc2)oc2cc(O)c(O)c(O)c12 [BAICALEIN] |
| – | – | – | 100 | 95 | OC[C@H]1NC[C@H](O)[C@@H](O)[C@@H]1O |
